The assay deals with T1, spezifischen NPY-Rezeptors (Homo sapiens, UniProt P25929).
T1 construct: intrazellulären Ca⁺⁺-Konzentration in HEL-Zellen (Human Erythroleukemia-Zellen) fluorimetrisch mit Fura-2 als Indikator gemessen; endogenous in cells; host or cells: HEL (human erythroleukemia) cells
T1 sequence (P25929 1-384): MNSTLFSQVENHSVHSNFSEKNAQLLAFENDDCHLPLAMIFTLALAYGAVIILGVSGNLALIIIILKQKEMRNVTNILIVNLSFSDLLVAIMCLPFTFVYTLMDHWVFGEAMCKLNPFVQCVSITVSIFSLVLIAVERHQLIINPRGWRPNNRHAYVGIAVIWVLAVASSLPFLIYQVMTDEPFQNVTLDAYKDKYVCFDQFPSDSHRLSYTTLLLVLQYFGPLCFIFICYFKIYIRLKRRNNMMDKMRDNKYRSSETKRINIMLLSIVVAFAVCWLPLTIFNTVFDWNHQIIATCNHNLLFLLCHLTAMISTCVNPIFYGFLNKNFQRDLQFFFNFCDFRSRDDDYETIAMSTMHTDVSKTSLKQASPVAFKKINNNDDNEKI
The assay is described as follows: Inhibition of the NPY-induced rise of intracellular Ca++ in HEL cells (fluorimetric, Fura-2; method of Motulsky and Michel). Type of assay: cell-based. As to conditions: HEL-Zellen, antagonists added at 10⁻⁴ bis 10⁻⁶ (unit inferred), Schild-Plot-Analyse, read-out: pA2 Hemmung des Ca^++-Anstieges (converted). An excerpt: Die Neuropeptid-Y-antagonistische Wirkung der erfindungsgemäß verwendeten Verbindungen wurde anhand der Methode von Motulsky und Michel (Motulsky, H.J., Michel, M.C., Am. J. Physiol. 255, 880 (1988)) nachgewiesen.
Bei dieser Methode wird der durch NPY induzierte Anstieg der intrazellulären Ca⁺⁺-Konzentration in HEL-Zellen (Human Erythroleukemia-Zellen) fluorimetrisch mit Fura-2 als Indikator gemessen. Unter den gegebenen Bedingungen bewirkt NPY einen konzentrationsabhängigen Anstieg der intrazellulären Ca⁺⁺-Konzentration über die Stimulation des spezifischen NPY-Rezeptors.
Zur Messung der Hemmwirkung der zu testenden Antagonisten werden diese in Konzentrationen von 10⁻⁴ bis 10⁻⁶ dem Inkubationsmedium zugesetzt. Dann wird erneut eine NPY-Wirkungskurve bestimmt.
Die erfindungsgemäß verwendeten Guanidinverbindungen verschieben die NPY-Konzentrationswirkungskurve nach rechts. Die Rechtsverschiebung ist nach Schild-Plot-Analyse kompetitiv. Die Substanzen antagonisieren demnach die NPY-Wirkung durch Konkurrenz am spezifischen NPY-Rezeptor.
On to `N=C(NCCCc1c[nH]cn1)NCCC(c1cc(F)cc(F)c1)c1ccccn1` (stereo not shown) [Verbindung B, N¹-[3-(3,5-Difluorphenyl)-3-(pyridin-2-yl)propyl]-N²-[3-(1H-imidazol-4-yl)propyl]-guanidin], for which the Kb is 19.1 µM. As for `N=C(NCCCc1c[nH]cn1)NCCOC(c1ccccc1)c1ccccc1` [Verbindung A, N¹-[3-(1H-Imidazol-4-yl)propyl]-N²-[2-(diphenylmethoxy)ethyl]-guanidin], the Kb is 100 µM. `Cc1cc(Br)cnc1N(CCNC(=N)NCCCc1c[nH]cn1)Cc1ccccc1` [Verbindung C, N¹-[2-[N-(5-Brom-3-methyl-pyridin-2-yl)benzylamino]-ethyl]-N²-[3-(1H-imidazol-4-yl)propyl]-guanidin]: the Kb is 1.32 µM. On to `Cc1cc(Br)cnc1CCCCNC(=N)NCCCc1c[nH]cn1` [Verbindung D, N¹-[4-(5-Brom-3-methyl-pyridin-2-yl)butyl]-N²-[3-(1H-imidazol-4-yl)propyl]-guanidin], for which the Kb was 9.12 µM.

These data come from patent publication EP0448765A1, “Use of guanidine derivatives for the manufacture of a medicament with NPY-antagonistic activity” (HEUMANN PHARMA GMBH & CO, priority 1990, dated 1991).
